Source: patent US20070274929A1, “ORAL COMPOSITION COMPRISING CHLORHEXIDINE AND MALTITOL OR ERYTHRITOL OR A MIXTURE THEREOF” (priority 2000, published 2007)

Assay: Masking the bitterness of chlorhexidine, panel of trained taste assessors (sip-and-spit, labelled magnitude line scale)
Assay type: in vivo
Conditions: for difference of the bitterness of the CHXG/inhibitor mixture from the 0.1% CHXG reference (analysis of variance): ANOVA at the 5% level, reference 0.1% CHXG in 8% ethanol-water; for difference of the bitterness of the CHXG/inhibitor mixture from the 0.1% CHXG reference (analysis of variance) / % suppression of bitterness of 0.1% CHXG: n=18; for % suppression of bitterness of 0.1% CHXG: 8% w/w ethanol in water, reference bitterness set at 70 on line scale 0-100; for masking the bitter taste of chlorhexidine compared with xylitol: inhibitors at 2 & 4% w/w, 0.1% CHXG
Protocol: The efficacy of maltitol, erythritol and xylitol to mask the bitter taste of chlorhexidine digluconate (CHXG) was evaluated using a panel of trained taste assessors.
All test solutions were made up in still mineral water. All tasting sessions were carried out at room temperature (20° C.). Samples were made up w/v (unless otherwise specified) one day before tasting and stored in the refrigerator overnight, then allowed to equilibrate to room temperature the next day before serving.
Eighteen panellists volunteered for the study. The panellists were first screened for their taste acuity using basic identification ranking techniques. 0.20% sodium chloride, 0.054% citric acid, 0.8% sucrose, 0.04% caffeine and 0.15% potassium alum were used to determine their ability to sense and identify saltiness, sourness, sweetness, bitterness and astringency, respectively. The detection and identification thresholds for bitterness were then measured using eight increasing concentrations of quinine hydrochloride (over a range of 0-0.0012%). Panellists were also instructed to rank four random concentrations of caffeine in increasing order of bitterness intensity. A similar experiment was done using quinine hydrochloride. All panellists performed well in those tasks.
The screened panellists were then asked to assess the bitterness intensities of the chlorhexidine mixtures using a “Labelled magnitude line scale” (LMS) as defined by Green et al., Chemical Senses, 1996, 21, 323-334. Solutions were made up containing the bitter inhibitors, 0.1% w/w CHXG, 8% w/w ethanol in water. The following concentrations of inhibitors were used:
Two samples were presented at any one time, one of which was the reference (0.1% CHXG in 8% ethanol-water). Sample presentation was randomised and was duplicated during the course of the study.
The “sip-and-spit” method was used for tasting CHXG solutions. Panellists were instructed to sip 5 ml sample, swirl it around their mouth and spit it out immediately before judging its bitterness intensity. This technique was expected to take 3-4 seconds.
Panellists were instructed to taste the reference first and memorise its bitter intensity. This intensity was assigned the number 70 on the line scale marked 0-100. Panellists were asked to wait until they could no longer feel any bitterness in their mouths (approximately 10 min) before tasting the second solution, whose intensity they then ranked in proportion to the intensity of the reference on the same line scale. Panellists were provided with mineral water to cleanse their palates.
Analysis of Variance (ANOVA) at the 5% level of significance was performed using the EXCEL software to find out whether there were any significant differences between the CHXG reference and the CHXG/inhibitor mixtures. A Fisher Least Significant Difference (LSD) test (O'Mahony M, 1986, Sensory Evaluation of Food—Statistical Methods and Procedures, Marcel Dekker, Inc, New York) was carried out on those samples where a significant difference had been found, to identify which sample means differ from the reference.

[1] = inhibitor 2% w/w in 0.1% w/w CHXG
[2] = inhibitor 4% w/w in 0.1% w/w CHXG

Structure (SMILES)	difference of the bitterness of the CHXG/inhibitor mixture from the 0.1% CHXG reference (analysis of variance)	% suppression of bitterness of 0.1% CHXG [1] [%]	% suppression of bitterness of 0.1% CHXG [2] [%]	masking the bitter taste of chlorhexidine compared with xylitol
OC[C@@H](O)[C@@H](O)CO [Erythritol]	significantly different	29.2	28.2	more effective than xylitol
OC[C@@H](O)[C@@H](O[C@H]1O[C@H](CO)[C@@H](O)[C@H](O)[C@H]1O)[C@H](O)[C@@H](O)CO [Maltitol]	significantly different	26.9	32.6	more effective than xylitol
OC[C@@H](O)[C@H](O)[C@@H](O)CO [Xylitol, reference compound]		14.3	13.6	
